Measurements: EP0632041A1, “New morphine derivatives having improved analgesic and narcotic properties” (priority 1993, dated 1995)
Where two headings read alike, the source gives them in different places.

Experiments:
mice = conditions: cited from earlier work
rats = assay: reflex inhibition and antinociception after intravenous and intrathecal injection in rats; type: in vivo; conditions: for antinociceptive efficacy: after intrathecal injection; for reflex inhibitory potency: intravenous and intrathecal injection
µ receptors = µ receptors (Homo sapiens, UniProt P35372); conditions: binding studies; cited from earlier work
δ receptors = δ receptors (Homo sapiens, UniProt P41143); conditions: binding studies; cited from earlier work
[1] = compared with prediction and with morphine; cited from earlier work
[2] = cited from earlier work
κ receptors = κ receptors (Homo sapiens, UniProt P41145); conditions: binding studies; cited from earlier work
[3] = pH of 7.4; relative to morphine; cited from earlier work
[4] = more potent than morphine; cited from earlier work
[5] = system: homogenate of bovine caudate nucleus; conditions: cited from earlier work
[6] = more potent than morphine; cited from earlier work; remark: listed apart in the source

Chain of δ receptors (P41143 whole entry, looked up): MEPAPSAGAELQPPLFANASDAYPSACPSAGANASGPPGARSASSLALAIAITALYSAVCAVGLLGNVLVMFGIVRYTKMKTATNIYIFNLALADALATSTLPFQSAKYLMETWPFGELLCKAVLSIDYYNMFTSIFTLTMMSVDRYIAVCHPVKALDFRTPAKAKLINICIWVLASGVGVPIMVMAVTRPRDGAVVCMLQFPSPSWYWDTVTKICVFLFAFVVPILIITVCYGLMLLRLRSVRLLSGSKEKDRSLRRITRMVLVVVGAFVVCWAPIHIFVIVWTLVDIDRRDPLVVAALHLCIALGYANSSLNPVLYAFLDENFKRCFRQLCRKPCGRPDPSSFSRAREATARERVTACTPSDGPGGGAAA
Chain of µ receptors (P35372 whole entry): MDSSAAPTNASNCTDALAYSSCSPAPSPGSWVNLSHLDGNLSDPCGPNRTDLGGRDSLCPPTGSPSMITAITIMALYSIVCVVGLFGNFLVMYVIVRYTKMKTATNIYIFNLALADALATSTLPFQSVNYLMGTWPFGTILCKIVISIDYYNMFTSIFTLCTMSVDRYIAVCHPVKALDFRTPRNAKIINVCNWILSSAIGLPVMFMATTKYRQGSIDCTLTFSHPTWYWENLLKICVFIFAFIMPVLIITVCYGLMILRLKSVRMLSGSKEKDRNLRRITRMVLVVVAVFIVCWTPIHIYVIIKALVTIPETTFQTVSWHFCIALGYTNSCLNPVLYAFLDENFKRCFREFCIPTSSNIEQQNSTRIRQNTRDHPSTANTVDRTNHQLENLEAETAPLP
Chain of κ receptors (P41145 whole entry, looked up): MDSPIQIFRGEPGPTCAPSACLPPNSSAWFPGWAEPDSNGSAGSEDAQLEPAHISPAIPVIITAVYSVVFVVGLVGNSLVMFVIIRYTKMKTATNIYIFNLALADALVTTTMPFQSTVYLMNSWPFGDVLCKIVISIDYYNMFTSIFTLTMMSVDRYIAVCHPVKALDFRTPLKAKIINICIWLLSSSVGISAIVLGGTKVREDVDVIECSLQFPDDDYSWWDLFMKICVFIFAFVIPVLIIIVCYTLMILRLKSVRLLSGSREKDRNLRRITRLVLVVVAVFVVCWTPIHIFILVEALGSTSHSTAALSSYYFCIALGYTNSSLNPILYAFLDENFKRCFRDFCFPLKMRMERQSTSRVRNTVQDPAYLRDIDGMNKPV

SMILES: CN1CC[C@]23c4c5ccc(O)c4O[C@H]2[C@@H](O)C=C[C@H]3[C@H]1C5 [morphine]
- analgesic potency at both levels of the neuraxis (mice; mouse, in vivo): equipotent

SMILES: CN1CC[C@]23c4c5ccc(O)c4O[C@H]2[C@@H](NC(=O)c2cccnc2)CC[C@H]3[C@H]1C5 [7,8-dihydro-6α-nicotinoylaminomorphine]
- antinociceptive efficacy (rats): long-lasting antinociceptive efficacy
- reflex inhibitory potency (rats): strong reflex inhibitory potency

SMILES: CN1CC[C@]23c4c5ccc(O[C@@H]6O[C@H](C(=O)O)[C@@H](O)[C@H](O)[C@H]6O)c4O[C@H]2[C@@H](O)C=C[C@H]3[C@H]1C5 [Example M-3-G]
- affinity, µ receptors (µ receptors): poor affinity
- affinity, δ receptors (δ receptors): poor affinity
- lipophilicity [1]: far more lipophilic than predicted
- effect of microinjection ([2]; microinjection directly into the periaquaductal grey): without effect
- affinity, κ receptors (κ receptors): poor affinity

SMILES: COc1ccc2c3c1O[C@H]1[C@@H](NC(=O)c4cccnc4)CC[C@H]4[C@@H](C2)N(C)CC[C@@]341 [7,8-dihydro-6α-nicotinoylaminocodeine]
- antinociceptive efficacy (rats): long-lasting antinociceptive efficacy
- reflex inhibitory potency (rats): strong reflex inhibitory potency

SMILES: CN1CC[C@]23c4c5ccc(OC(=O)c6cccnc6)c4O[C@H]2[C@@H](OC(=O)c2cccnc2)C=C[C@H]3[C@H]1C5 [nicomorphine, 3,6-dinicotinoyl-morphine]
- lipid solubility higher than that of morphine [3]: about 10 fold

SMILES: CN1CC[C@]23c4c5ccc(O)c4O[C@H]2[C@@H](O[C@@H]2O[C@H](C(=O)O)[C@@H](O)[C@H](O)[C@H]2O)C=C[C@H]3[C@H]1C5 [Example M-6-G, morphine-6-glucuronide]
- affinity, δ receptors (δ receptors): not
- lipophilicity [1]: far more lipophilic than predicted
- antinociceptive potency relative to morphine, writhing [4]: 45 fold
- ability to displace ³H-naloxone [5]: comparable to that of morphine
- antinociceptive potency relative to morphine, tail-flick [6]: 61 fold
- seizure activity ([2]; high doses): profound seizure activity
- potency relative to morphine following microinjection ([2]; microinjection into the periaquaductal grey): up to 20 fold
- analgesic potency relative to morphine (mice; given intrathecally): 90 fold
- analgesic potency relative to morphine (mice; given intravenously): 650 fold
- analgesic effectiveness at the level of the spinal cord versus supraspinally (mice; spinal cord compared with supraspinal): approximately 5 fold
- analgesia, effect relative to morphine (mice; subcutaneous administration, mice): approximately twice
